Experimental data taken from ChEMBL document CHEMBL1201862, “PubChem BioAssay data set” (2004).
Structures can show the parent of a compound that is named as a salt.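 96-well plates; 48 h exposure; 5 concentrations. Endpoints by linear interpolation between flanking doses. Not reached: highest tested concentration assigned. The concentration for 50% growth inhibition is given as GI50.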 Active and inactive are the calls of the source. Cut-off read from the data, not from the text of the source: active = GI50 up to about 1.1 µM and inactive = higher. Where a SMILES comes first, the peptide text is derived from it. The star is where a group is joined. Boc = CC(C)(C)OC(=O)*; OBn = c1ccc(CO*)cc1

What was measured:
Assay in all cases: NCI anticancer screen, dose series, 48 h
HOP-62 = system: HOP-62
HL-60 = system: HL-60
DU-145 = system: DU-145
T47D = system: T47D
MDA-MB-435 = system: MDA-MB-435
SK-MEL-5 = system: SK-MEL-5
MDA-MB-231 = system: MDA-MB-231
ACHN = system: ACHN
LOX IMVI = system: LOX IMVI
SNB-19 = system: SNB-19
SR = system: SR
HCT-15 = system: HCT-15
OVCAR-4 = system: OVCAR-4
OVCAR-5 = system: OVCAR-5
SK-OV-3 = system: SK-OV-3
786-0 = system: 786-0
KM12 = system: KM12
A549 = system: A549
HCT-116 = system: HCT-116

Structure (SMILES) | GI50 (HOP-62) | GI50 (HL-60) | GI50 (DU-145) | GI50 (T47D) | GI50 (MDA-MB-435) | GI50 (SK-MEL-5) | GI50 (MDA-MB-231) | GI50 (ACHN) | GI50 (LOX IMVI) | GI50 (SNB-19) | GI50 (SR) | GI50 (HCT-15) [µM] | GI50 (OVCAR-4) | GI50 (OVCAR-5) | GI50 (SK-OV-3) | GI50 (786-0) | GI50 (KM12) | GI50 (A549) | GI50 (HCT-116)
CC(C)Cn1cnc2c(SCc3ccccn3)nc(N)nc21 | > 100 µM (inactive) | > 100 µM (inactive) | > 100 µM (inactive) | 80.7 µM (inactive) | > 100 µM (inactive) | > 100 µM (inactive) | > 100 µM (inactive) | > 100 µM (inactive) | > 100 µM (inactive) | > 100 µM (inactive) | > 100 µM (inactive) | > 100 | > 100 µM (inactive) | > 100 µM (inactive) | > 100 µM (inactive) | > 100 µM (inactive) | > 100 µM (inactive) | > 100 µM (inactive) | > 100 µM (inactive)
CCOC(=O)c1nc2ccccc2nc1Nc1ccc(Cl)c(Cl)c1 | 30.4 µM (inactive) | 30.8 µM (inactive) | > 100 µM (inactive) | 60.8 µM (inactive) | > 100 µM (inactive) | 21.5 µM (inactive) | > 100 µM (inactive) | 76.7 µM (inactive) |  | 27.2 µM (inactive) | > 100 µM (inactive) | > 100 | 27.9 µM (inactive) | > 100 µM (inactive) | 27.7 µM (inactive) | 29.2 µM (inactive) | > 100 µM (inactive) | 59.4 µM (inactive) | 29 µM (inactive)
CC(NC(=O)C(Cc1ccccc1)NC(=O)C(Cc1ccccc1)NC(=O)OC(C)(C)C)C(=O)OCc1ccccc1 (stereo not drawn) (Boc-Phe-Phe-Ala-OBn; configuration not given here) | > 100 µM (inactive) | 31.8 µM (inactive) | > 100 µM (inactive) | > 100 µM (inactive) | > 100 µM (inactive) | 94.2 µM (inactive) | > 100 µM (inactive) |  | > 100 µM (inactive) |  | 28.6 µM (inactive) |  |  | > 100 µM (inactive) | > 100 µM (inactive) | > 100 µM (inactive) | > 100 µM (inactive) | > 100 µM (inactive) | 76.9 µM (inactive)
O=C1Nc2ccccc2/C1=c1\[nH]c(=O)/c(=C\c2ccc(OCc3ccccc3)cn2)[nH]c1=O | 20 µM (inactive) | 49.4 µM (inactive) | 86.5 µM (inactive) | > 100 µM (inactive) | 44.1 µM (inactive) | 64.6 µM (inactive) | 35.1 µM (inactive) | 33.7 µM (inactive) | > 100 µM (inactive) | 31.4 µM (inactive) | 20.1 µM (inactive) | 41.1 | 72.4 µM (inactive) | > 100 µM (inactive) | 32.3 µM (inactive) | 18.8 µM (inactive) | > 100 µM (inactive) | > 100 µM (inactive) | 85.7 µM (inactive)
CC1(C)CC2=C(Sc3ccccc3N2)C(=O)C1C(=O)C(=O)Nc1cc(Cl)ccc1Cl (centres undefined) |  | > 100 µM (inactive) | > 100 µM (inactive) | 82.8 µM (inactive) | > 100 µM (inactive) | 42.1 µM (inactive) | > 100 µM (inactive) | > 100 µM (inactive) | > 100 µM (inactive) | > 100 µM (inactive) | > 100 µM (inactive) | > 100 | 30.1 µM (inactive) | > 100 µM (inactive) | > 100 µM (inactive) | > 100 µM (inactive) | > 100 µM (inactive) | > 100 µM (inactive) | > 100 µM (inactive)
Cc1cc(C(=O)CBr)c(CN2C(=O)c3ccccc3C2=O)c(=O)n1C | 47.4 µM (inactive) | 5.09 µM (inactive) | 13.7 µM (inactive) | 25.5 µM (inactive) | 20.3 µM (inactive) |  | 18.1 µM (inactive) | 8.47 µM (inactive) | 12.9 µM (inactive) | 33.3 µM (inactive) | 1.64 µM (inactive) | 12.6 | 14.7 µM (inactive) | 24.9 µM (inactive) | > 100 µM (inactive) | 21.8 µM (inactive) | 19.5 µM (inactive) | 18.8 µM (inactive) | 66.1 µM (inactive)
CN(Cc1cnc2nc(N)nc(N)c2n1)c1ccc(C(=O)NC(CO)CCCO)cc1 (centres undefined) | > 100 µM (inactive) | > 100 µM (inactive) | > 100 µM (inactive) | > 100 µM (inactive) | > 100 µM (inactive) | > 100 µM (inactive) | > 100 µM (inactive) | > 100 µM (inactive) | > 100 µM (inactive) | > 100 µM (inactive) | > 100 µM (inactive) | > 100 |  | > 100 µM (inactive) | > 100 µM (inactive) | > 100 µM (inactive) | > 100 µM (inactive) |  | > 100 µM (inactive)
Cc1cc[n+]2c(c1)-c1cc(C)cc[n+]1CC2 | > 100 µM (inactive) | > 100 µM (inactive) | > 100 µM (inactive) | > 100 µM (inactive) | > 100 µM (inactive) | > 100 µM (inactive) | > 71.1 µM (inactive) | > 100 µM (inactive) | > 100 µM (inactive) | > 100 µM (inactive) | > 100 µM (inactive) | > 100 | > 100 µM (inactive) | > 100 µM (inactive) | > 100 µM (inactive) | > 100 µM (inactive) | > 100 µM (inactive) | > 100 µM (inactive) | > 100 µM (inactive)
Cn1c(=S)sc2nc3ccccc3n2c1=S | 17 µM (inactive) | 2.49 µM (inactive) | 5.35 µM (inactive) | 9.84 µM (inactive) | 7.45 µM (inactive) | 12.2 µM (inactive) | 19.3 µM (inactive) | 11.3 µM (inactive) | 5.97 µM (inactive) | 13.7 µM (inactive) | 2.37 µM (inactive) | 13.2 | 16 µM (inactive) | 15.3 µM (inactive) | 10.4 µM (inactive) | 12.7 µM (inactive) | 10.2 µM (inactive) | 24.7 µM (inactive) | 2.49 µM (inactive)
O=C(C(Cl)=C(N1CCOCC1)N1CCOCC1)C(Cl)Cl | > 100 µM (inactive) | > 100 µM (inactive) | > 100 µM (inactive) | > 100 µM (inactive) | > 100 µM (inactive) | > 100 µM (inactive) | > 100 µM (inactive) | > 100 µM (inactive) | > 100 µM (inactive) | > 100 µM (inactive) | 34.5 µM (inactive) | > 100 | > 100 µM (inactive) |  | > 100 µM (inactive) | > 100 µM (inactive) | > 100 µM (inactive) | > 100 µM (inactive) | > 100 µM (inactive)
C1CSCC2(COC2)CSCCSCC2(COC2)CS1 | > 100 µM (inactive) | > 100 µM (inactive) | > 100 µM (inactive) | > 100 µM (inactive) | > 100 µM (inactive) | > 100 µM (inactive) | > 100 µM (inactive) |  | > 100 µM (inactive) | > 100 µM (inactive) | > 100 µM (inactive) | > 100 | > 100 µM (inactive) | > 100 µM (inactive) | > 100 µM (inactive) | > 100 µM (inactive) | > 100 µM (inactive) | > 100 µM (inactive) | > 100 µM (inactive)
Cn1c2c(c3ccccc31)CC1c3c(c4ccccc4n3C)CC21 (centres undefined) | > 100 µM (inactive) | > 100 µM (inactive) | > 100 µM (inactive) | > 100 µM (inactive) | > 100 µM (inactive) | > 100 µM (inactive) | > 100 µM (inactive) | > 100 µM (inactive) | > 100 µM (inactive) | > 100 µM (inactive) | > 100 µM (inactive) | > 100 | > 100 µM (inactive) | > 100 µM (inactive) | > 100 µM (inactive) | > 100 µM (inactive) | > 100 µM (inactive) | > 100 µM (inactive) | 
CC(C)=C1C(=O)C[C@]2(C)C[C@H]3O[C@]3(C)CC[C@@H]3O[C@@]3(C)CC[C@@H]12 | > 50 µM (inactive) | > 50 µM (inactive) | > 50 µM (inactive) | > 50 µM (inactive) | > 50 µM (inactive) |  | > 50 µM (inactive) | > 50 µM (inactive) | 17.5 µM (inactive) | > 50 µM (inactive) | 34.5 µM (inactive) | > 50 | > 50 µM (inactive) | > 50 µM (inactive) | > 50 µM (inactive) | > 50 µM (inactive) | > 50 µM (inactive) | > 50 µM (inactive) | > 50 µM (inactive)
O=C(O)c1cccc(S(=O)(=O)NN2C(=O)CSC2c2ccc(Cl)cc2Cl)c1 (centres undefined) | 44.9 µM (inactive) | 12 µM (inactive) | > 100 µM (inactive) | > 100 µM (inactive) | 21.2 µM (inactive) | > 100 µM (inactive) | 43.5 µM (inactive) | > 100 µM (inactive) | 34.2 µM (inactive) | 49.5 µM (inactive) | 17.6 µM (inactive) | 30.2 |  | > 100 µM (inactive) | > 100 µM (inactive) | 16 µM (inactive) | 41.7 µM (inactive) | > 100 µM (inactive) | 28.7 µM (inactive)
O=C(OCCN1CCCCCC1)C(c1ccsc1)C1CCCCC1 (centres undefined) [CETIEDIL CITRATE] | 15.1 µM (inactive) | 24.5 µM (inactive) | 16.6 µM (inactive) | 3.28 µM (inactive) | 16.9 µM (inactive) |  | 16.7 µM (inactive) | 17.1 µM (inactive) | 17.1 µM (inactive) | 18.7 µM (inactive) | 26.6 µM (inactive) | 14.4 |  | 17.3 µM (inactive) | 16.9 µM (inactive) | 16.5 µM (inactive) | 16.8 µM (inactive) | 19.4 µM (inactive) | 14.1 µM (inactive)
